In patent publication US4470840A, “1-Triacontanol plant growth stimulator formulations” (Biochemical Research Corporation, priority 1981, dated 1984):

Key:
Type in all cases: in vivo
[1] = system: Hybrid Sweet Corn Seedlings (cv. Silver Queen); test: Lengths of stems and total plant length of seedlings sprayed Day 7; conditions: T = 1-triacontanol 0.1 mg/liter
[2] = system: Tomatoes (cv. Ponderosa Red Beefsteak, Red Cherry, Rutgers VF); test: Field trial: marketable yield and seed size; conditions: for Percent increases (size of seeds) / Wt. of treated seed: 100 seeds; for Percent increases (size of seeds) / Wt. of treated seed / Fresh wt. (marketable yield) / Percent increases (marketable yield): 1-triacontanol 0.25 mg/liter; for Wt. of treated seed: control seed 0.32; for Fresh wt. (marketable yield) / Percent increases (marketable yield): pH 9 to 10
Method: (§1) Field trials were conducted in Northern Virginia on plots that were replicated at least five items. Plots consisted of single rows of plants in blocks of three or more plots, with treatments being assigned randomly within each block.
(§2) Plants were fertilized with the fertilizers described in Table 1, and sprayed at air temperatures listed in the same Table. Spraying was usually avoided under windy conditions to avoid drift. In the examples set forth herein, data were treated in a similar manner to those found in the greenhouse trials, with analysis of variance performed for each trial, and the use of a suitable statistical method for the analysis of results, preferably Duncan's multiple range test.

[3] = system: Field Corn (cv. Trojan TXS 94); test: Field trial: crop yield and seed size; conditions: 1-triacontanol 0.25 mg/liter; for % increase (wt. of seed) / % increase (wt./15 ears) / Wt. of seed / Wt./15 ears: TRIACON-10, pH 10.4; for Percent increases (size of seeds) / Wt. of treated seed: cv. Trojan TXS 94, 1000 seeds; for Wt. of treated seed: control seed 252
Method: as §1, §2

[4] = system: Hybrid Sweet Corn Seedlings (cv. Silver Queen); test: Greenhouse trial: dry weight and water uptake of seedlings after foliar spraying
Method: (§3) In general, greenhouse trials were conducted as follows: eight to twelve seeds were sown per pot in Peat-Lite® Mix and received an average of 100 ml of water per day. After plants had the third true leaf (average), the various formulations were applied to the leaves as a fine mist at air temperatures listed in Table 1. Temperatures above 20° C., preferably 25°-30° C., are preferred.
(§4) The 1-triacontanol formulation most generally used consisted of a concentrate containing 5 mg of 1-triacontanol dissolved in 1 liter of acetone, with 20 ml of the concentrate being further dissolved to 1 liter with water having a pH between 8 and 10, with over a pH of 11 also being effective. The pH was adjusted with aqueous NaOH and the concentrate added just prior to spraying.
(§5) When other plant growth substances were added to the formulations, these were added either to the concentrate in the polar organic solvent or alternatively in the aqueous solution, depending on the solubility of the plant growth substance. All metal salts were added to the water used to spray the 1-triacontanol formulations. After spraying, preferably about four to nine days or more, plants were harvested with roots, and fresh weights were obtained. Plants were then dried in an oven, preferably at a temperature below 100° C., until constant weight was obtained, and dry weight values were obtained for each plot. Subtraction of the dry weights from the fresh weights gave the water uptake weights (water content) of each plot. The weights of the above mentioned seedlings were compared to the control weights to obtain the percent increases.
(§6) It is particularly advantageous to arrange each of the potted plants in size range categories corresponding to the number of replications used. For example, if five replications are employed, plants are divided into five size categories, normally measured by the height of the plants. Treatments are then assigned randomly within each block (size category). This removes the variation due to plant size for statistical purposes, as is well practiced in the art. The resulting data is analyzed using any appropriate means, which may include the least significant difference method (L.S.D. method), Duncan's multiple range test, as used here (Biometrics, 11: 1 (1955)), or other means.

[5] = system: Field Corn Seedlings (cv. Trojan TXS 94, Pioneer 3780, WF9 X Bear 38); test: as above; conditions: cv. Trojan TXS 94, no metal salt, 1-triacontanol 0.1 mg/liter
Method: as §3, §4, §5, §6

[6] = cv. Ponderosa Red Beefsteak, CaCl2 5 mM, no IAA
[7] = cv. Ponderosa Red Beefsteak, CaCl2 50 mM, IAA 0.01 mM
[8] = cv. Ponderosa Red Beefsteak, CaCl2 5 mM, no IAA (Formulation 12)
[9] = cv. Ponderosa Red Beefsteak, CaCl2 50 mM, IAA 10 μM (Formulation 16)
[10] = cv. Ponderosa Red Beefsteak, previous year
[11] = cv. Red Cherry, CaCl2 5 mM, no IAA (Formulation 12)
[12] = cv. Red Cherry, CaCl2 50 mM, IAA 10 μM (Formulation 16)
[13] = cv. Rutgers VF, CaCl2 5 mM, no IAA (Formulation 12)
[14] = cv. Rutgers VF, CaCl2 50 mM, IAA 10 μM (Formulation 16)
[15] = 14-day old seedlings, 1-triacontanol 0.1 mg/liter alone, no plant growth substance (Formulation 2)
[16] = 14-day old seedlings, metal ion 9 mM (none in the last line) with 1-triacontanol 0.1 mg/liter, pH 8 to 10, Formulation 4
[17] = Formulation 4, 1-triacontanol 0.5 mg/liter, 10 mM CaCl2, pH 8.1, test seed first generation (sprayed) vs control first (not sprayed)
[18] = Formulation 4, 1-triacontanol 0.5 mg/liter, 10 mM CaCl2, pH 8.1, test seed second generation (first and second sprayed) vs control second (first and second not sprayed)
[19] = Formulation 4, 1-triacontanol 0.5 mg/liter, 10 mM CaCl2, pH 8.1, test seed second generation (first and second sprayed) vs control second (second was sprayed only)
[20] = Formulation 4, 1-triacontanol 0.5 mg/liter, 10 mM CaCl2, pH 8.1, test seed second generation (first was sprayed only) vs control second (first and second not sprayed)

For `CCCCCCCCCCCCCCCCCCCCCCCCCCCCCCO` [1-Triacontanol, 1-triacontanol], which “Increase in length "a"” value [1] is on record?
Its value is 0%.

What about the “Increase in length "b"” value [1] of the same molecule?
The value was “+15%”.

What about the “Length "a" (stem to the first leaf)” value ([1]; control 11.5 cm) of the same molecule?
Its value is 11.5 cm.

And the “Length "b" (total plant length)” value ([1]; control 25.0 cm)?
The value was 28.8 cm.

What about the “Percent increases (size of seeds)” value [2, 6] of the same molecule?
The value was “+25%”.

What about the “Wt. of treated seed” value [2, 6] of the same molecule?
Its value is 0.40 g.

And the “Percent increases (size of seeds)” value [2, 7]?
The value was “+6%”.

And the “Wt. of treated seed” value [2, 7]?
Its value is 0.34 g.

What about the “Fresh wt. (marketable yield)” value [2, 8] of the same molecule?
Its value is 15353 g.

What about the “Percent increases (marketable yield)” value [2, 8] of the same molecule?
Its value is “+38%”.

What about the “Fresh wt. (marketable yield)” value [2, 9] of the same molecule?
Its value is 22283 g.

And the “Percent increases (marketable yield)” value [2, 9]?
Its value is “+45%”.

And the “Early yield over controls” value [2, 10]?
Its value is 72%.

What about the “Late yield over controls” value [2, 10] of the same molecule?
The value was 67%.

And the “Fresh wt. (marketable yield)” value [2, 11]?
Its value is 5679 g.

What about the “Percent increases (marketable yield)” value [2, 11] of the same molecule?
The value was “+26%”.

And the “Fresh wt. (marketable yield)” value [2, 12]?
The value was 6225 g.

What about the “Percent increases (marketable yield)” value [2, 12] of the same molecule?
The value was “+38%”.

What about the “Fresh wt. (marketable yield)” value [2, 13] of the same molecule?
Its value is 14079 g.

And the “Percent increases (marketable yield)” value [2, 13]?
The value was “+7%”.

And the “Fresh wt. (marketable yield)” value [2, 14]?
The value was 20880 g.

What about the “Percent increases (marketable yield)” value [2, 14] of the same molecule?
The value was “+59%”.

And the “% increase (wt. of seed)” value ([3]; CaCl2 1 mM, no IAA)?
Its value is “+27%”.

What about the “% increase (wt./15 ears)” value ([3]; CaCl2 1 mM, no IAA) of the same molecule?
Its value is “+33%”.

What about the Wt. of seed ([3]; CaCl2 1 mM, no IAA, control 1740 g) of the same molecule?
The Wt. of seed was 2211 g.

And the Wt./15 ears ([3]; CaCl2 1 mM, no IAA, control 1777 g)?
Its Wt./15 ears is 2356 g.

And the “% increase (wt. of seed)” value ([3]; CaCl2 3 mM, IAA 0.01 mM)?
The value was “+34%”.

And the “% increase (wt./15 ears)” value ([3]; CaCl2 3 mM, IAA 0.01 mM)?
The value was “+46%”.

What about the Wt. of seed ([3]; CaCl2 3 mM, IAA 0.01 mM) of the same molecule?
The Wt. of seed was 2342 g.

And the Wt./15 ears ([3]; CaCl2 3 mM, IAA 0.01 mM)?
Its Wt./15 ears is 2950 g.

And the “Percent increases (size of seeds)” value ([3]; CaCl2 1 mM, no IAA)?
The value was “+18%”.

And the “Wt. of treated seed” value ([3]; CaCl2 1 mM, no IAA)?
Its value is 297 g.

What about the “Percent increases (size of seeds)” value ([3]; CaCl2 3 mM, IAA 0.01 mM) of the same molecule?
The value was “+27%”.

And the “Wt. of treated seed” value ([3]; CaCl2 3 mM, IAA 0.01 mM)?
Its value is 319 g.

And the “Increase in dry weight” value ([4]; 1-triacontanol 0.1 mg/liter, Formulation 4, additive 9 mM (none in the last line))?
The value was “+21%”.

What about the “Increases, H2O uptake” value [4, 15] of the same molecule?
The value was “+16%”.

And the “Increases, dry wt.” value [4, 15]?
Its value is “+20%”.

What about the “% increase (dry weight)” value [4, 16] of the same molecule?
Its value is “+21%”.

What about the “% increase (water uptake)” value [4, 16] of the same molecule?
Its value is “+16%”.

What about the Dry weight ([4]; 14-day old seedlings, metal ion 9 mM (none in the last line) with 1-triacontanol 0.1 mg/liter, pH 8 to 10, Formulation 4, control 0.86 g) of the same molecule?
The Dry weight was 1.04 g.

And the Water uptake ([4]; 14-day old seedlings, metal ion 9 mM (none in the last line) with 1-triacontanol 0.1 mg/liter, pH 8 to 10, Formulation 4, control 8.7 g)?
The Water uptake was 10.1 g.

And the “Increases, H2O uptake” value ([4]; 14-day old seedlings, no metal salt, 1-triacontanol 0.1 mg/liter, Formulation 1 as printed)?
Its value is “+16%”.

What about the “Increases, H2O uptake” value [4, 17] of the same molecule?
Its value is “+41%”.

What about the “Increases, dry wt.” value [4, 17] of the same molecule?
Its value is “+44%”.

What about the “Increases, H2O uptake” value [4, 18] of the same molecule?
Its value is “+78%”.

And the “Increases, dry wt.” value [4, 18]?
Its value is “+80%”.

What about the “Increases, H2O uptake” value [4, 19] of the same molecule?
Its value is “+46%”.

What about the “Increases, dry wt.” value [4, 19] of the same molecule?
The value was “+41%”.

And the “Increases, H2O uptake” value [4, 20]?
Its value is “+40%”.

What about the “Increases, dry wt.” value [4, 20] of the same molecule?
Its value is “+44%”.

What about the “Increases, dry wt.” value ([4]; foliar, 0.1 ug/mL) of the same molecule?
The value was “+20%”.

And the Dry wt. increase ([5]; Formulation 4)?
The Dry wt. increase was -3%.

What about the Dry wt. increase ([5]; Formulation 11) of the same molecule?
The Dry wt. increase was -8%.
